# Measurements taken from ChEMBL document CHEMBL4321799, “Development of the First Low Nanomolar Liver Receptor Homolog-1 Agonist through Structure-guided Design” (J Med Chem, 2019).
# Active and inactive are the calls of the source. The calls are words filed in the database; no cut-off is given here.
# How the values were obtained:
# [1] = biological target: Nuclear receptor subfamily 5 group A member 2 (Homo sapiens) (UniProt O00482)
# [2] = biological target: Steroidogenic factor 1 (Homo sapiens) (UniProt Q13285); test: Agonist activity at recombinant full length SF1 (unknown origin) transfected in human HeLa cells incubated for 24 hrs by renilla luciferase reporter gene assay; type: cell-based
# [3] = system: Nuclear receptor subfamily 5 group A member 2 (Homo sapiens), O00482 [M345L]; test: Activation of human full length LRH1 M345L mutant transfected in human HeLa cells at 10 uM incubated for 24 hrs by renilla luciferase reporter gene assay; type: cell-based
# [4] = system: Nuclear receptor subfamily 5 group A member 2 (Homo sapiens), O00482 [H390A]; test: Activation of human full length LRH1 H390A mutant transfected in human HeLa cells at 10 uM incubated for 24 hrs by renilla luciferase reporter gene assay; type: cell-based
# [5] = system: Nuclear receptor subfamily 5 group A member 2 (Homo sapiens), O00482 [T352V]; test: Activation of human full length LRH1 T352V mutant transfected in human HeLa cells at 10 uM incubated for 24 hrs by renilla luciferase reporter gene assay; type: cell-based
# Mus musculus [6] = species on record: Mus musculus; test: Effect on Cyp11b1 mRNA expression in LRH1 knock-out mouse enteroids at 1 uM pretreated with TNF-alpha followed incubation with compound for overnight by real-time PCR analysis; type: functional
# Mus musculus [7] = species on record: Mus musculus; test: Effect on Cyp11a1 mRNA expression in LRH1 knock-out mouse enteroids at 1 uM pretreated with TNF-alpha followed incubation with compound for overnight by real-time PCR analysis; type: functional
# Chain of Nuclear receptor subfamily 5 group A member 2 (Homo sapiens) (O00482 whole entry): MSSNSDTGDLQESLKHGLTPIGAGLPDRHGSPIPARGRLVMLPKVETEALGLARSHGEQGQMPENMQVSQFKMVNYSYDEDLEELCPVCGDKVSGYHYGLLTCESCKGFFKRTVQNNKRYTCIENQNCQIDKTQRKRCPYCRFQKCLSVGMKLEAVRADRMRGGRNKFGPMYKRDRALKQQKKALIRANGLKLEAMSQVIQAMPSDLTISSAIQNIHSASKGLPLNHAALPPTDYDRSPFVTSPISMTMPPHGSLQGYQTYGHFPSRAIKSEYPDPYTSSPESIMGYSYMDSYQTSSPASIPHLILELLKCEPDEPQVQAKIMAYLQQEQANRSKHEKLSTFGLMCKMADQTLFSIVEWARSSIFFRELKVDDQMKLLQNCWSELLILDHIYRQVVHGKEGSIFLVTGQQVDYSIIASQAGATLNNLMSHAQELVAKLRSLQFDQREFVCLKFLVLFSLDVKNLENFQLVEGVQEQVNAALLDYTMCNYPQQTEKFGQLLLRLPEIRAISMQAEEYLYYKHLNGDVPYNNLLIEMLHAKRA
# Chain of Steroidogenic factor 1 (Homo sapiens) (Q13285 whole entry): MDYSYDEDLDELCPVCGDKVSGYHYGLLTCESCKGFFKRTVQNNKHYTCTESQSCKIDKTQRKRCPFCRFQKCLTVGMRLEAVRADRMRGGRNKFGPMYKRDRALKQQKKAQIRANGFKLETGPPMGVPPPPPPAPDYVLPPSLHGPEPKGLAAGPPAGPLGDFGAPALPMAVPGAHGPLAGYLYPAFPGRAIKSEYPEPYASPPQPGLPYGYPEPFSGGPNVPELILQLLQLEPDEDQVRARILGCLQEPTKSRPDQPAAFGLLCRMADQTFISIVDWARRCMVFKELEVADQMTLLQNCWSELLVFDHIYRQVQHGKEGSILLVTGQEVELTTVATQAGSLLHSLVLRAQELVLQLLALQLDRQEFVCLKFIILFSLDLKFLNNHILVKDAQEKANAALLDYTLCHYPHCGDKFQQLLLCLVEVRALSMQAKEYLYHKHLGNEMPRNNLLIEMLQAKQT
# Chain of Nuclear receptor subfamily 5 group A member 2 (Homo sapiens), O00482 [T352V] (O00482 whole entry T352V): as the sequence (O00482 whole entry) above, with T352V counted along it
# Chain of Nuclear receptor subfamily 5 group A member 2 (Homo sapiens), O00482 [M345L] (O00482 whole entry M345L): as the sequence (O00482 whole entry) above, with M345L counted along it
# Chain of Nuclear receptor subfamily 5 group A member 2 (Homo sapiens), O00482 [H390A] (O00482 whole entry H390A): as the sequence (O00482 whole entry) above, with H390A counted along it
SMILES,ΔTm [1] [°C],Activity [2],also measured
C=C(c1ccccc1)[C@@]12CC[C@H](n3ccnn3)[C@@H]1CC(CCCCCC)=C2c1ccccc1 (racemic),3 to 8,–,–
C=C(c1ccccc1)[C@@]12CC[C@H](NC(C)=O)[C@@H]1CC(CCCCCC)=C2c1ccccc1 (racemic),–,inactive,Activity [3]: Active; Activity [4]: inactive; Activity [5]: Active
C=C(c1ccccc1)[C@@]12CC[C@H](NS(N)(=O)=O)[C@@H]1CC(CCCCCC)=C2c1ccccc1 (racemic),–,Active,Activity (Mus musculus [6]): inactive; Activity (Mus musculus [7]): inactive
C=C(c1ccccc1)[C@@]12CC[C@@H](O)[C@@H]1CC(CCCCCC)=C2c1ccccc1,–,Active,–

# Second part, led by results:
ΔTm [1] [°C],Activity [2],SMILES,also measured
3 to 8,Active,C=C(c1ccccc1)[C@@]12CC[C@H](OS(N)(=O)=O)[C@@H]1CC(CCCCCC)=C2c1ccccc1 (racemic),–
3 to 8,–,C=C(c1ccccc1)[C@@]12CC[C@H](OS(=O)(=O)NC(N)=O)[C@@H]1CC(CCCCCC)=C2c1ccccc1 (racemic),–
3 to 8,–,C=C(c1ccccc1)[C@@]12CC[C@@H](OS(N)(=O)=O)[C@@H]1CC(CCCCCC)=C2c1ccccc1 (racemic),–
